For this test, the system named is endogenous cellular STAT1 (phosphorylated at Tyr701) in NCI-H1373 cells. The experiment in a line: Phospho-STAT1 (Tyr701) LANCE Ultra TR-FRET Detection Assay. It is filed as cell-based. The settings on record: phospho-STAT1 (Tyr701) induction, read-out: NH1373 pSTAT1 EC50.

Molecules are shown by their SMILES. Read-outs that look alike come from different tables or passages of the source.

Turning to `C[C@@H](CCCn1cnc2cc(-c3ncc(C(F)(F)F)c(N4CC(C)(O)C4)n3)c(F)cc2c1=O)Nc1cn[nH]c(=O)c1C(F)(F)F` [Example 190, (S)-6-fluoro-7-(4-(3-hydroxy-3-methylazetidin-1-yl)-5-(trifluoromethyl)pyrimidin-2-yl)-3-(4-((6-oxo-5-(trifluoromethyl)-1,6-dihydropyridazin-4-yl)amino)pentyl)quinazolin-4(3H)-one], the EC50 (Homo sapiens, NCI-H1373, 48 h) was determined as 29.9 nM. The same measure, in the same setting: the value for `C[C@@H](CCCn1ccc2cc(-c3ncc(N4CC5(COC5)C4)cn3)c(F)cc2c1=O)Nc1cn[nH]c(=O)c1C(F)(F)F` [Example 99, (S)-6-(5-(2-oxa-6-azaspiro[3.3]heptan-6-yl)pyrimidin-2-yl)-7-fluoro-2-(4-((6-oxo-5-(trifluoromethyl)-1,6-dihydropyridazin-4-yl)amino)pentyl)isoquinolin-1(2H)-one] was 1280 nM; that for `Nc1nc(-c2cc3ccn(CC[C@H]4COC[C@@H]4Nc4cn[nH]c(=O)c4C(F)(F)F)c(=O)c3cc2F)ncc1C(F)(F)F` (racemic) [Example 441, (rac) 6-(4-amino-5-(trifluoromethyl)pyrimidin-2-yl)-7-fluoro-2-(2-((3R,4R)-4-((6-oxo-5-(trifluoromethyl)-1,6-dihydropyridazin-4-yl)amino)tetrahydrofuran-3-yl)ethyl)isoquinolin-1(2H)-one] was 388 nM.

On to `[2H]C([2H])([2H])OC[C@@H](CCCn1cnc2cc(-c3ncc(C(F)(F)F)cn3)c(F)cc2c1=O)Nc1cn[nH]c(=O)c1C(F)(F)F` [Example 430, 6-fluoro-3-[(4R)-4-[[6-oxo-5-(trifluoromethyl)-1H-pyridazin-4-yl]amino]-5-(trideuteriomethoxy)pentyl]-7-[5-(trifluoromethyl)pyrimidin-2-yl]quinazolin-4-one], for which the EC50 (Homo sapiens, NCI-H1373, 48 h) is 2.63 nM. As for `O=c1[nH]ncc(N[C@H]2CCC[C@H]2CCn2ccc3cc(-c4ncc(C(F)(F)F)cn4)c(F)cc3c2=O)c1C(F)(F)F` (racemic) [Example 437, (rac)-7-fluoro-2-(2-((1S,2S)-2-((6-oxo-5-(trifluoromethyl)-1,6-dihydropyridazin-4-yl)amino)cyclopentyl)ethyl)-6-(5-(trifluoromethyl)pyrimidin-2-yl)isoquinolin-1(2H)-one], the EC50 (Homo sapiens, NCI-H1373, 48 h) came to 102 nM.

Take `CC[C@@H](CCCn1ccc2cc(-c3ncc(C(F)F)c(N)n3)c(F)c(F)c2c1=O)Nc1cn[nH]c(=O)c1C(F)(F)F` [Example 356, (S)-6-(4-amino-5-(difluoromethyl)pyrimidin-2-yl)-7,8-difluoro-2-(4-((6-oxo-5-(trifluoromethyl)-1,6-dihydropyridazin-4-yl)amino)hexyl)isoquinolin-1(2H)-one]: where the note is “Homo sapiens, NCI-H1373, 48 h”, the EC50 turned out to be 4.9 nM.

Take `C[C@@H](CCCn1ccc2cc(-c3ncnc(N)n3)c(F)cc2c1=O)Nc1cn[nH]c(=O)c1C(F)(F)F` [Example 365, (S)-6-(4-amino-1,3,5-triazin-2-yl)-7-fluoro-2-(4-((6-oxo-5-(trifluoromethyl)-1,6-dihydropyridazin-4-yl)amino)pentyl)isoquinolin-1(2H)-one]: the EC50 (Homo sapiens, NCI-H1373, 48 h) came to 55.8 nM. On the same count and under the same terms, the value for `C[C@@H](CCCn1cnc2cc(-c3ncc(C4CC4)c(N)n3)c(F)cc2c1=O)Nc1cn[nH]c(=O)c1C(F)(F)F` [Example 65, 7-(4-amino-5-cyclopropyl-pyrimidin-2-yl)-6-fluoro-3-[(4S)-4-[[6-oxo-5-(trifluoromethyl)-1H-pyridazin-4-yl]amino]pentyl]quinazolin-4-one] was 29.2 nM.

Turning to `Cc1ncc(-c2cc3ccn(C[C@@H]4CCC[C@H](Nc5cn[nH]c(=O)c5C(F)(F)F)C4)c(=O)c3cc2F)nc1N` [Example 262, 6-(6-amino-5-methylpyrazin-2-yl)-7-fluoro-2-(((1R,3S)-3-((6-oxo-5-(trifluoromethyl)-1,6-dihydropyridazin-4-yl)amino)cyclohexyl)methyl)isoquinolin-1(2H)-one], the EC50 (Homo sapiens, NCI-H1373, 48 h) amounted to 193 nM. On the same count and under the same terms, under `O=c1[nH]ncc(N[C@H]2CCC[C@@H](Cn3ccc4cc(-c5ccc(C(F)(F)F)cn5)c(F)cc4c3=O)C2)c1C(F)(F)F` [Example 268, 7-fluoro-2-(((1R,3S)-3-((6-oxo-5-(trifluoromethyl)-1,6-dihydropyridazin-4-yl)amino)cyclohexyl)methyl)-6-(5-(trifluoromethyl)pyridin-2-yl)isoquinolin-1(2H)-one] stands 13 nM.

`Nc1nc(-c2cc3ncn(C[C@@H]4CCC[C@H](Nc5cn[nH]c(=O)c5C(F)(F)F)C4)c(=O)c3cc2F)ncc1Cl` [Example 261, 7-(4-amino-5-chloropyrimidin-2-yl)-6-fluoro-3-(((1R,3S)-3-((6-oxo-5-(trifluoromethyl)-1,6-dihydropyridazin-4-yl)amino)cyclohexyl)methyl)quinazolin-4(3H)-one]: the EC50 (Homo sapiens, NCI-H1373, 48 h) came to 6.1 nM. The same measure, in the same setting: under `CCOc1cnc(-c2cc3ccn(CCC[C@H](C)Nc4cn[nH]c(=O)c4C(F)(F)F)c(=O)c3cc2F)nc1N` [Example 192, (S)-6-(4-amino-5-ethoxypyrimidin-2-yl)-7-fluoro-2-(4-((6-oxo-5-(trifluoromethyl)-1,6-dihydropyridazin-4-yl)amino)pentyl)isoquinolin-1(2H)-one] stands 2.24 nM; under `Nc1nc(-c2cc3ccn(C[C@@H]4CCC[C@H](Nc5cn[nH]c(=O)c5C(F)(F)F)C4)c(=O)c3cc2F)ncc1Cl` [Example 250, 6-(4-amino-5-chloropyrimidin-2-yl)-7-fluoro-2-(((1R,3S)-3-((6-oxo-5-(trifluoromethyl)-1,6-dihydropyridazin-4-yl)amino)cyclohexyl)methyl)isoquinolin-1(2H)-one], 4.71 nM; under `CC[C@@H](CCCn1ccc2cc(-c3ncc(C#N)c(N)n3)c(F)cc2c1=O)Nc1cn[nH]c(=O)c1C(F)(F)F` [Example 70, 4-amino-2-[7-fluoro-1-oxo-2-[(4S)-4-[[6-oxo-5-(trifluoromethyl)-1H-pyridazin-4-yl]amino]hexyl]-6-isoquinolyl]pyrimidine-5-carbonitrile], 22.1 nM.

For the compound `C[C@@H](CCCn1ccc2cc(-c3ncc(C(F)F)c(NC4CC4)n3)c(F)cc2c1=O)Nc1cn[nH]c(=O)c1C(F)(F)F` [Example 221, (S)-6-(4-(cyclopropylamino)-5-(difluoromethyl)pyrimidin-2-yl)-7-fluoro-2-(4-((6-oxo-5-(trifluoromethyl)-1,6-dihydropyridazin-4-yl)amino)pentyl)isoquinolin-1(2H)-one], the EC50 (Homo sapiens, NCI-H1373, 48 h) was 15.3 nM. The same measure, in the same setting: the value for `C[C@@H](CCCn1ccc2cc(-c3cc(F)c(N)cn3)c(F)cc2c1=O)Nc1cn[nH]c(=O)c1C(F)(F)F` [Example 96, (S)-6-(5-amino-4-fluoropyridin-2-yl)-7-fluoro-2-(4-((6-oxo-5-(trifluoromethyl)-1,6-dihydropyridazin-4-yl)amino)pentyl)isoquinolin-1(2H)-one] was 558 nM; that for `COc1ccc(-c2cc3ccn(CCC[C@H](C)Nc4cn[nH]c(=O)c4C(F)(F)F)c(=O)c3cc2F)nc1N` [Example 195, (S)-6-(6-amino-5-methoxypyridin-2-yl)-7-fluoro-2-(4-((6-oxo-5-(trifluoromethyl)-1,6-dihydropyridazin-4-yl)amino)pentyl)isoquinolin-1(2H)-one] was 8.14 nM. For the compound `Cc1cnc(-c2cc3ccn(C[C@@H]4CCC[C@H](Nc5cn[nH]c(=O)c5C(F)(F)F)C4)c(=O)c3cc2F)nc1` [Example 242], the EC50 (48 hours) came out at 9.44 nM.

The values are drawn from patent US12459922B2 (Gilead Sciences, Inc., priority 2022, dated 2025).
